Assay results taken from patent US12435031B2, “Compound with broad-spectrum antibacterial activity and its antibacterial composition” (CHINA AGRICULTURAL UNIVERSITY, priority 2023, dated 2025).
In brackets after ≈: the same amount, converted by molar mass. Read-outs that look alike come from different tables or passages of the source.

Test system: Clostridium perfringens
Test: microbe, parasite or virus in culture
Assay type: cell-based
[1] = Clostridium perfringens, read-out: MIC value against Clostridium perfringens, strain A3-1 (A-type)
[2] = Clostridium perfringens, read-out: MIC value against Clostridium perfringens, strain A3-2 (A-type)
[3] = Clostridium perfringens, read-out: MIC value against Clostridium perfringens, strain A57-1 (A-type)
[4] = Clostridium perfringens, read-out: MIC value against Clostridium perfringens, strain B4 (B-type)
[5] = Clostridium perfringens, read-out: MIC value against Clostridium perfringens, strain B5 (B-type)
[6] = Clostridium perfringens, read-out: MIC value against Clostridium perfringens, strain C3 (C-type)
[7] = Clostridium perfringens, read-out: MIC value against Clostridium perfringens, strain C8 (C-type)
[8] = Clostridium perfringens, read-out: MIC value against Clostridium perfringens, strain C59-1 (C-type)
[9] = Clostridium perfringens, read-out: MIC value against Clostridium perfringens, strain D14B (D-type)
[10] = Clostridium perfringens, read-out: MIC value against Clostridium perfringens, strain F5-2 (F-type)
[11] = Clostridium perfringens, read-out: MIC value against Clostridium perfringens, strain F6-1 (F-type)
[12] = Clostridium perfringens, read-out: MIC value against Clostridium perfringens, strain F6-2 (F-type)
[13] = Clostridium perfringens, read-out: MIC value against Clostridium perfringens, strain F6-2-1 (F-type)
[14] = Clostridium perfringens, read-out: MIC value against Clostridium perfringens, strain F6-2-2 (F-type)
[15] = Clostridium perfringens, read-out: MIC value against Clostridium perfringens, strain F7-1 (F-type)
[16] = Clostridium perfringens, read-out: MIC value against Clostridium perfringens, strain F8-1 (F-type)
[17] = Clostridium perfringens, read-out: MIC value against Clostridium perfringens, strain H12-1 (H-type)
[18] = Clostridium perfringens, read-out: MIC value against Clostridium perfringens, strain H12-2 (H-type)
[19] = Clostridium perfringens, read-out: MIC value against Clostridium perfringens, strain H13-1 (H-type)
[20] = Clostridium perfringens, read-out: MIC value against Clostridium perfringens, strain H14-1 (H-type)
[21] = Clostridium perfringens, read-out: MIC value against Clostridium perfringens, strain H14-2 (H-type)
[22] = Clostridium perfringens, read-out: MIC value against Clostridium perfringens, strain H14-4 (H-type)
[23] = Clostridium perfringens, read-out: MIC value against Clostridium perfringens, strain H15-1 (H-type)
[24] = Clostridium perfringens, read-out: MIC value against Clostridium perfringens, strain H15-2 (H-type)
[25] = Clostridium perfringens, read-out: MIC value against Clostridium perfringens, strain H15-3 (H-type)
[26] = Clostridium perfringens, read-out: MIC value against Clostridium perfringens, strain H16 (H-type)

With `C=C[C@]1(C)C[C@@H](OC(=O)CSCCN(CC)CC)[C@]2(C)[C@H](C)CC[C@]3(CCC(=O)[C@H]32)[C@@H](C)[C@@H]1O` [TIA, Tiamulin] the MIC90 (Clostridium perfringens) was 8 µg/mL (≈ 16.2 µM), the MIC50 (Clostridium perfringens (n=26), unit as printed for tiamulin) was 0.5 µg/mL (≈ 1.01 µM) and the MIC [1] was 0.5 µg/mL (≈ 1.01 µM). The MIC [2] was 0.5 µg/mL (≈ 1.01 µM), the MIC [3] was 4 µg/mL (≈ 8.1 µM) and the MIC [4] was 4 µg/mL (≈ 8.1 µM). For the same compound, the MIC [5] was 0.5 µg/mL (≈ 1.01 µM), the MIC [6] was 8 µg/mL (≈ 16.2 µM) and the MIC [7] was 0.5 µg/mL (≈ 1.01 µM). For the same compound, the MIC [8] was ≤ 0.25 µg/mL, the MIC [9] was 8 µg/mL (≈ 16.2 µM) and the MIC [10] was 0.5 µg/mL (≈ 1.01 µM). The MIC [11] was 0.5 µg/mL (≈ 1.01 µM), the MIC [12] was 0.5 µg/mL (≈ 1.01 µM) and the MIC [13] was 0.5 µg/mL (≈ 1.01 µM). The MIC [14] was 0.5 µg/mL (≈ 1.01 µM), the MIC [15] was 4 µg/mL (≈ 8.1 µM) and the MIC [16] was 4 µg/mL (≈ 8.1 µM). For the same compound, the MIC [17] was 0.5 µg/mL (≈ 1.01 µM), the MIC [18] was ≤ 0.25 µg/mL and the MIC [19] was 4 µg/mL (≈ 8.1 µM). The MIC [20] was 8 µg/mL (≈ 16.2 µM), the MIC [21] was 8 µg/mL (≈ 16.2 µM) and the MIC [22] was 4 µg/mL (≈ 8.1 µM). For the same compound, the MIC [23] was ≤ 0.25 µg/mL, the MIC [24] was 4 µg/mL (≈ 8.1 µM) and the MIC [25] was 4 µg/mL (≈ 8.1 µM). For the same compound, the MIC [26] was 4 µg/mL (≈ 8.1 µM).

With `CCC[C@@H]1C[C@@H](C(=O)N[C@@H]([C@H]2O[C@H](SC)[C@H](O)[C@@H](O)[C@H]2O)[C@@H](C)O)N(C)C1` [LIN, Lincomycin] the MIC50 (Clostridium perfringens) was 8 µg/mL (≈ 19.7 µM), the MIC90 (Clostridium perfringens) was > 128 µg/mL and the MIC [1] was 1 µg/mL (≈ 2.46 µM). The MIC [2] was 0.5 µg/mL (≈ 1.23 µM), the MIC [3] was 2 µg/mL (≈ 4.92 µM) and the MIC [4] was > 128 µg/mL. For the same compound, the MIC [5] was > 128 µg/mL, the MIC [6] was > 128 µg/mL and the MIC [7] was 128 µg/mL (≈ 315 µM). The MIC [8] was 0.5 µg/mL (≈ 1.23 µM), the MIC [9] was 64 µg/mL (≈ 157 µM) and the MIC [10] was 128 µg/mL (≈ 315 µM). For the same compound, the MIC [11] was 32 µg/mL (≈ 78.7 µM), the MIC [12] was 32 µg/mL (≈ 78.7 µM) and the MIC [13] was 128 µg/mL (≈ 315 µM). The MIC [14] was 128 µg/mL (≈ 315 µM), the MIC [15] was > 128 µg/mL and the MIC [16] was > 128 µg/mL. For the same compound, the MIC [17] was 0.5 µg/mL (≈ 1.23 µM), the MIC [18] was ≤ 0.25 µg/mL and the MIC [19] was 4 µg/mL (≈ 9.84 µM). It also gave an MIC [20] of 8 µg/mL (≈ 19.7 µM), an MIC [21] of 8 µg/mL (≈ 19.7 µM) and an MIC [22] of 4 µg/mL (≈ 9.84 µM). The MIC [23] was ≤ 0.25 µg/mL, the MIC [24] was 4 µg/mL (≈ 9.84 µM) and the MIC [25] was 4 µg/mL (≈ 9.84 µM). It also gave an MIC [26] of 4 µg/mL (≈ 9.84 µM).

Compound `Cc1cc(C(F)(F)F)ccc1NC(=O)c1cc(Cl)ccc1O` [BAB151] has an MIC50 (Clostridium perfringens) of 8 µg/mL (≈ 24.3 µM).

`Cc1c(C(=O)C=Cc2ccccc2)[n+](=O)c2ccccc2n1[O-]` [QCT, Quincetone] was tested, and the “MIC value against Clostridium perfringens” value (“MIC value” below) (strain A3-1 (A-type)) was 0.5 µg/mL (≈ 1.63 µM), the “MIC value” value (strain A3-2 (A-type)) was ≤0.25 µg/mL and the “MIC value” value (strain A57-1 (A-type)) was ≤0.25 µg/mL. For the same compound, the “MIC value” value (strain B4 (B-type)) was ≤0.25 µg/mL, the “MIC value” value (strain B5 (B-type)) was ≤0.25 µg/mL and the “MIC value” value (strain C3 (C-type)) was 1 µg/mL (≈ 3.26 µM). For the same compound, the “MIC value” value (strain C8 (C-type)) was ≤0.25 µg/mL, the “MIC value” value (strain C59-1 (C-type)) was ≤0.25 µg/mL and the “MIC value” value (strain D14B (D-type)) was ≤0.25 µg/mL. For the same compound, the “MIC value” value (strain F5-2 (F-type)) was 0.5 µg/mL (≈ 1.63 µM), the “MIC value” value (strain F6-1 (F-type)) was 4 µg/mL (≈ 13.1 µM) and the “MIC value” value (strain F6-2 (F-type)) was 0.5 µg/mL (≈ 1.63 µM). For the same compound, the “MIC value” value (strain F6-2-1 (F-type)) was 1 µg/mL (≈ 3.26 µM), the “MIC value” value (strain F6-2-2 (F-type)) was ≤0.25 µg/mL and the “MIC value” value (strain F7-1 (F-type)) was ≤0.25 µg/mL. The “MIC value” value (strain F8-1 (F-type)) was 0.5 µg/mL (≈ 1.63 µM), the “MIC value” value (strain H12-1 (H-type)) was ≤0.25 µg/mL and the “MIC value” value (strain H12-2 (H-type)) was ≤0.25 µg/mL. The “MIC value” value (strain H13-1 (H-type)) was ≤0.25 µg/mL, the “MIC value” value (strain H14-1 (H-type)) was ≤0.25 µg/mL and the “MIC value” value (strain H14-2 (H-type)) was 0.5 µg/mL (≈ 1.63 µM). For the same compound, the “MIC value” value (strain H14-4 (H-type)) was ≤0.25 µg/mL, the “MIC value” value (strain H15-1 (H-type)) was ≤0.25 µg/mL and the “MIC value” value (strain H15-2 (H-type)) was ≤0.25 µg/mL. The “MIC value” value (strain H15-3 (H-type)) was 0.5 µg/mL (≈ 1.63 µM) and the “MIC value” value (strain H16 (H-type)) was ≤0.25 µg/mL.

In the case of `O=C(Nc1cc(F)c(Cl)c(Cl)c1)c1cc(Cl)ccc1O` [BAB166], the MIC50 (Clostridium perfringens) is reported as 32 µg/mL (≈ 95.6 µM).

For `CO/N=C(\C(=O)N[C@@H]1C(=O)N2C(C(=O)O)=C(CSC(=O)c3ccco3)CS[C@H]12)c1csc(N)n1` [CEF, Ceftiofur], the MIC [1] was ≤ 0.25 µg/mL, the MIC [2] was ≤ 0.25 µg/mL and the MIC [3] was ≤ 0.25 µg/mL. For the same compound, the MIC [4] was ≤ 0.25 µg/mL, the MIC [5] was ≤ 0.25 µg/mL and the MIC [6] was 1 µg/mL (≈ 1.91 µM). For the same compound, the MIC [7] was ≤ 0.25 µg/mL, the MIC [8] was ≤ 0.25 µg/mL and the MIC [9] was ≤ 0.25 µg/mL. For the same compound, the MIC [10] was ≤ 0.25 µg/mL, the MIC [11] was ≤ 0.25 µg/mL and the MIC [12] was ≤ 0.25 µg/mL. The MIC [13] was ≤ 0.25 µg/mL, the MIC [14] was ≤ 0.25 µg/mL and the MIC [15] was ≤ 0.25 µg/mL. The MIC [16] was ≤ 0.25 µg/mL, the MIC [17] was ≤ 0.25 µg/mL and the MIC [18] was ≤ 0.25 µg/mL. For the same compound, the MIC [19] was ≤ 0.25 µg/mL, the MIC [20] was ≤ 0.25 µg/mL and the MIC [21] was ≤ 0.25 µg/mL. The MIC [22] was ≤ 0.25 µg/mL, the MIC [23] was ≤ 0.25 µg/mL and the MIC [24] was ≤ 0.25 µg/mL. For the same compound, the MIC [25] was ≤ 0.25 µg/mL and the MIC [26] was ≤ 0.25 µg/mL.
